# Results from patent US20060211744A1, “3-Pyridinecarboxamide reduces nerve degeneration” (Children's Medical Center, priority 2005, published 2006).
# Assays:
# [1] = test system: experimental autoimmune encephalomyelitis (EAE) mice; assay type: in vivo
# Text: EAE is an inflammatory, demyelinating disease that can be induced by immunizing animals against myelin antigens, and is an accepted animal model for multiple sclerosis (MS) as it has similarities based on both the histopathology and the clinical course of the affected animals. In methods adapted from Lo et al. (J Neurophysiol. 2003 November;90(5):3566-71) we examine the effect of nicotinamide on axonal degeneration within the dorsal columns (cuneate fasciculus) and dorsal corticospinal tracts of the spinal cord.
# Induction of EAE. Experiments are carried out in accordance with National Institutes of Health guidelines for the use of laboratory animals. C57/BL6 mice 6-10 wk of age are injected subcutaneously with 200 μl of an emulsion of 300 μg of rat myelin oligodendrocyte glycoprotein (MOG) 35-55 peptide (Keck Biotechnology Center, Yale University) in incomplete Freund's adjuvant (IFA, Sigma, St. Louis, Mo.) supplemented with 250-500 μg of Mycobacterium tuberculosis H37Ra (Difco, Detroit, Mich.). The MOG injection, with mycobacterium supplemented IFA, is repeated in the opposite flank 1 wk later. The mice also receive an injection of 250-500 ng pertussis toxin (Sigma) in 200 μl PBS ip immediately after the first immunization with MOG and then again 48 h later.
# Nicotinamide treatment. Beginning on day 10 after the initial MOG injection, control and EAE-induced mice are fed pelleted mice chow incorporating nicotinamide (Sigma) to achieve an average daily consumption of 500 mg/kg nicotinamide. A separate group of EAE mice are fed the identical standard mice chow not containing nicotinamide. Serum nicotinamide levels are measured by HPLC (Chatzimichalakis et al, J Sep Sci. (2004) 27:1181-8) from two mice in each group on day 14 and on the day of either perfusion (days 27-28) or electrophysiological study (days 24-30).
# Mice are observed daily for clinical signs and scored on a 0-6 scale, with 0.5 gradations for intermediate scores, as follows: 0, normal without clinical signs; 1, flaccid tail; 2, abnormal righting reflex; 3, partial hindlimb paralysis; 4, complete hindlimb paralysis; 5, moribund; and 6, death.
# Electrophysiological recordings. Fourteen adult male C57/BL6 mice are used for assessing spinal cord conduction. Untreated EAE (n=6) and nicotinamide-treated EAE (n=4) mice are studied between days 24 and 30 and age-matched nicotinamide-treated mice (n=4) are used as controls. Mice are anesthetized with halothane, and deep anesthesia is maintained with 1.1% halothane through a tracheal cannula by artificial ventilation (75-80 strokes/min, 0.7 ml/stroke) and verified by the absence of a withdrawal reflex to noxious peripheral pinch. Heartbeats (˜360 beats/min) and body temperature are carefully monitored. Mice are fixed in a stereotaxic apparatus (Kopf Instruments). A midline incision is made through the skin, a laminectomy is performed, and the dura is carefully cut to expose the lower thoracic and lumbar spinal cord regions. Silver wire electrodes (0.01-in diam, A-M Systems) insulated except at the tips are used for stimulation of dorsal column axons at L4-5 and recording of compound action potentials (CAP) at T11-12. Using stereotaxic measurements, the electrodes are positioned 8 mm apart at the surface of the midline spinal cord. Pancuronium bromide (0.3 mg/kg, Sigma) is injected ip to prevent further muscular contractions throughout the experiment. The signal from the recording electrode is amplified with filters set at 300-3,000 Hz (Dam 80, WPI) and collected (CED 1401, Cambridge Electronic Design), and a computer is used for data analysis (Spike 2 program, Cambridge Electronic Design). Single-current pulses (0.05 ms) are applied through a stimulus isolation unit (A365, WPI, and Master-8, AMPI) in increments (0.2, 0.3, 0.6, 0.8, and 1 mA). The amplitude of CAP is calculated as the value between the positive and negative peaks of the biphasic wave. […]
# [2] = test system: transected axons from cultured dorsal root ganglia (DRG); test: HPLC measurement of NAD and ATP levels in degenerating axons of cultured DRG; assay type: cell-based
# Procedure: As a first step in examining the role of NAD in Wallerian degeneration, we used an ultra-sensitive high-performance liquid chromatography (HPLC) method (Micheli and Sestini, 1997) to measure the concentration of NAD and its derivatives in degenerating axons. To do this, the acidic lysates were prepared from axonal segments collected at different time points after transecting the axons from cultured dorsal root ganglia (DRG) and resolved by reverse-phase chromatography. 2 hr after axotomy, when the transected axons were still morphologically indistinguishable from their uncut controls, NAD levels began to decrease. This NAD decrease continued over the course of degeneration, reaching about 50% at 4 hr post-axotomy, to almost undetectable levels by 6 hr after axotomy, when early morphological signs of degeneration began to develop. […] By a similar approach of alkaline extraction (Micheli and Sestini, 1997), it has been difficult for us to detect NADH in the axonal extracts, presumably due to the low abundance of NADH and the high NAD/NADH ratio reported in mammalian cells (Zhang et al., 2002, Kasischke et al., 2004, Kannurpatti et al., 2004).
# In addition to acting as co-factors for Sirt1 and other NAD-dependent enzymes, NAD is also essential for ATP-synthesizing redox reactions which are involved in glycolysis and oxidative phosphorylation (Shibata et al., 1991). […]
# [3] = nicotinamide-treated EAE, days 24-30
structure (smiles),measurement,setting,value
"NC(=O)c1cccnc1 [nicotinamide, 3-pyridinecarboxamide]",effect on dorsal corticospinal column and dorsal column (cuneate fasciculus) axons,"[1]; EAE mice, 27-28 days",significant protective effect
same,clinical course versus untreated EAE mice,"[1]; EAE mice, chow 500 mg/kg daily from day 10",less severe clinical course
same,clinical score (0-6 scale),"[1]; EAE mice, chow 500 mg/kg daily from day 10, day 27-28 (untreated EAE 3-4)",1-2
same,clinical signs in nicotinamide-treated control mice,"[1]; mouse, in vivo",do not display any pathological clinical signs
same,"difference in density of neurofilament-labeled axons, untreated versus nicotinamide-treated controls","[1]; mouse, in vivo",not significant
same,average CAP amplitude and area versus nicotinamide-treated control group,[1]; [3],not significantly different
same,conduction velocity,[1]; [3],maintained close to normal levels
same,axonal NAD levels after transection (HPLC),[2]; exogenously applied,delayed the decrease of axonal NAD levels
same,ATP levels in transected axons separated from their somas,[2]; exogenously provided,delayed the decrease of ATP levels
